This data set can be described thus: physchem.

`CC(C)(C)C(O)(CCCCCc1ccccc1F)Cn1nc[nH]c1=S` (centres unmarked) [Example 22, 1-[2-tert-butyl-7-(2-fluorophenyl)-2-hydroxyheptyl]-1H-1,2,4-triazole-5(4H)-thione]: the log partition coefficient (logP) (as a rule, a log measure of how a compound divides between an organic and an aqueous phase) was 4.2. `CC(C)(C)C(O)(CCCCc1ccccc1Cl)Cn1nc[nH]c1=S` (centres unmarked) [Example 18, 1-[2-tert-butyl-6-(2-chlorophenyl)-2-hydroxyhexyl]-1H-1,2,4-triazole-5(4H)-thione] had a lipophilicity (logP) of 4. Compound `CC(C)(C)C(O)(CCCCc1ccccc1F)Cn1nc[nH]c1=S` (centres unmarked) [Example 19, 1-[2-tert-butyl-6-(2-fluorophenyl)-2-hydroxyhexyl]-1H-1,2,4-triazole-5(4H)-thione] returned a logP of 3.4. Consider `CC(C)(C)C(O)(CCCCc1ccc(F)cc1)Cn1nc[nH]c1=S` (centres unmarked) [Example 15, 1-[2-tert-Butyl-6-(4-fluorophenyl)-2-hydroxyhexyl]-1H-1,2,4-triazole-5(4H)-thione], for which the logP was determined as 3.7. In turn, `CC(C)(C)C(O)(CCCCCc1ccc(F)cc1)Cn1nc[nH]c1=S` (centres unmarked) [Example 21, 1-[2-tert-butyl-7-(4-fluorophenyl)-2-hydroxyheptyl]-1H-1,2,4-triazole-5(4H)-thione] had a logP of 4. Regarding `CC(C)(C)C(O)(CCCCc1ccc(Cl)cc1)Cn1nc[nH]c1=S` (centres unmarked) [Example 17, 1-[2-tert-butyl-6-(4-chlorophenyl)-2-hydroxyhexyl]-1H-1,2,4-triazole-5(4H)-thione], the logP turned out to be 4.2. The result for `CC(C)(C)C(O)(CCCCc1ccccc1)Cn1nc[nH]c1=S` (centres unmarked) [Example 16, 1-[2-tert-butyl-6-phenyl-2-hydroxyhexyl]-1H-1,2,4-triazole-5(4H)-thione] reads 3.6; that for `CC(Cc1ccc(F)cc1F)CC(O)(Cn1nc[nH]c1=S)C(C)(C)C` (centres unmarked) [Example 2, 2-[2-tert-butyl-5-(2,4-difluorophenyl)-2-hydroxy-4-methyl-pentyl]-2,4-dihydro-[1,2,4]triazole-3-thione], 3.8; that for `CC(C)(C)C(O)(CCCCc1ccc(Cl)cc1Cl)Cn1nc[nH]c1=S` (centres unmarked) [Example 20, 1-[2-tert-butyl-6-(2,4-dichlorophenyl)-2-hydroxyhexyl]-1H-1,2,4-triazole-5(4H)-thione], 4.7. As for `CC(C)(C)C(O)(CCCc1ccc(F)cc1F)Cn1nc[nH]c1=S` (centres unmarked) [Example 10, 2-[2-tert-butyl-5-(2,4-difluoro-phenyl)-2-hydroxy-pentyl]-2,4-dihydro-[1,2,4]triazole-3-thione], the log partition coefficient (logP) was 3.3. `CC(C)(C)C(O)(CCCCCc1ccc(Cl)cc1)Cn1nc[nH]c1=S` (centres unmarked) [Example 23, 1-[2-tert-butyl-7-(4-chlorophenyl)-2-hydroxyheptyl]-1H-1,2,4-triazole-5(4H)-thione] returned a logP of 4.4.

The record behind these values is patent publication US20120108422A1, “Antifungal 1,2,4-triazolyl Derivatives” (BASF SE, priority 2009, published 2012).
